Test results taken from US6624143B1, “Calcium salts of lipopeptide antibiotics, method for producing same and their use” (Aventis Pharma Deutschland GmbH, priority 1998, dated 2003).
Counter-ions that a name gives are not always drawn. Like-named read-outs stand apart in the source and are kept apart here.

Assays:
Format in all cases: cell-based
[1] = tested on: monkey blood; details: rhesus monkey, 3 h
Description: For the measurement of hemolytic activity, freshly taken, venous human, Rhesus monkey or beagle dog blood is used. The blood is collected in heparinized tubes and distributed in aliquots of 200 μl into 12 polyethylene tubes. One aliquot is treated with 200 μl of distilled water and used as a 100% standard, another is mixed with 200 μl of physiological saline solution (0.9% NaCl). 200 μl each of substance dilutions in physiological saline solution to 1600, 800, 400, 200, 100, 50, 25, 12.5, 6.25 and 3.125 mg/l are distributed into the other tubes. All tubes are carefully swung and then incubated for 3 hours at 37° C. The 100% standard is then made up with 5 ml of distilled water, the other tubes with 5 ml each of physiological saline solution, and centrifuged at 700 g for 5 minutes.
The hemolysis is determined by measurement of the absorption of the supernatant in a spectrophotometer at a wavelength of 540 nm. The absorption of the standard with complete hemolysis is set at 100%. The absorption of the test preparation dilutions and of the 0% standard are measured and indicated as a percentage of the maximally inducible hemolysis.

[2] = tested on: Enteroc. faecalis, UC5; test: serial dilution test, MIC; details: ATCC 29212 novR
Source text: (§1) Table 3: In-vitro activity of the A1437D Ca salt against Gram-positive bacteria in the serial dilution test indicated as the minimum inhibitory concentration (MIC)

[3] = tested on: Staph. epidermidis, GO42; test: serial dilution test, MIC; details: Staphylococcus epidermidis, oxaR
Source text: as §1

[4] = tested on: Enteroc. faecalis, HM9; test: serial dilution test, MIC; details: novR, vanR, eryR
Source text: as §1

[5] = tested on: Streptoc. mitis, GR16; test: serial dilution test, MIC; details: eryR
Source text: as §1

[6] = tested on: Staph. aureus, 11CB20; test: serial dilution test, MIC; details: Staphylococcus aureus, oxaR, eryR, tetR
Source text: as §1

[7] = tested on: Streptoc. milleri, GR12; test: serial dilution test, MIC; details: S
Source text: as §1

[8] = tested on: Staphyloc. aureus, 11HT3; test: serial dilution test, MIC; details: S
Source text: as §1

[9] = tested on: Streptoc. pyogenes, A1F16; test: serial dilution test, MIC; details: eryR
Source text: as §1

[10] = tested on: Staph. aureus, 11GO64; test: serial dilution test, MIC; details: Staphylococcus aureus, oflR, oxaR, eryR, novR
Source text: as §1

[11] = tested on: Enteroc. faecium, IP2; test: serial dilution test, MIC; details: teiR, vanR, eryR, tetR
Source text: as §1

[12] = tested on: Enteroc. faecium, HM3; test: serial dilution test, MIC; details: teiR, vanR, eryR
Source text: as §1

[13] = tested on: Enteroc. gallinarium, HM8; test: serial dilution test, MIC; details: vanR, tetR
Source text: as §1

[14] = tested on: Staph. aureus, 11HT1; test: serial dilution test, MIC; details: Staphylococcus aureus, novR
Source text: as §1

[15] = tested on: Enteroc. faecalis, DU18; test: serial dilution test, MIC; details: tetR, novR
Source text: as §1

[16] = tested on: Streptoc. pyogenes, A1SJ1; test: serial dilution test, MIC; details: eryR
Source text: as §1

[17] = tested on: Staph. aureus, 11DU5; test: serial dilution test, MIC; details: Staphylococcus aureus, novR, tetR
Source text: as §1

[18] = tested on: Enteroc. faecium, AP9; test: serial dilution test, MIC; details: vanR, teiR
Source text: as §1

[19] = tested on: Enteroc. faecium, HT12; test: serial dilution test, MIC; details: teiR, vanR, eryR, tetR
Source text: as §1

[20] = tested on: Streptoc. pneumoniae 30B12; test: serial dilution test, MIC; details: eryR
Source text: as §1

[21] = tested on: Staph. aureus, ATCC 13709; test: serial dilution test, MIC; details: Staphylococcus aureus, ATCC13709
Source text: as §1

[22] = tested on: Staph. epidermidis, GO20; test: serial dilution test, MIC; details: Staphylococcus epidermidis, tetR
Source text: as §1

[23] = tested on: Streptoc. gr. G, GOCB2; test: serial dilution test, MIC; details: tetR, rifR, novR
Source text: as §1

[24] = tested on: Staphyloc. coagul. negativ; test: serial dilution test, MIC; details: oflR, oxaR, tetR
Source text: as §1

With `CC(C)CCCCCCC/C=C\CC(=O)N[C@@H](CC(N)=O)C(=O)N[C@@H]1C(=O)N2CCCC[C@@H]2C(=O)N[C@@H]([C@H](C)C(=O)O)C(=O)N[C@@H](CC(=O)O)C(=O)NCC(=O)N[C@@H](CC(=O)O)C(=O)NCC(=O)N[C@H]([C@@H](C)N)C(=O)N[C@@H](C(C)C)C(=O)N2CCC[C@H]2C(=O)N[C@@H]1C` [A1437D Ca salt] the “in vitro hemolysis, percentage of the maximally inducible hemolysis” value (“in vitro hemolysis, percentage” for short) ([1]; 12.5 mg/l) was 0%, the “in vitro hemolysis, percentage” value ([1]; 25 mg/l) was 0% and the “in vitro hemolysis, percentage” value ([1]; 50 mg/l) was 0%. The “in vitro hemolysis, percentage” value ([1]; 100 mg/l) was 3%, the “in vitro hemolysis, percentage” value ([1]; 200 mg/l) was 6% and the “in vitro hemolysis, percentage” value ([1]; 400 mg/l) was 9%. For the same molecule, the “in vitro hemolysis, percentage” value ([1]; 800 mg/l) was 15%, the “in vitro hemolysis, percentage” value ([1]; 1600 mg/l) was 19% and the MIC [2] was 2.5 µg/mL. For the same molecule, the MIC [3] was 0.3 µg/mL, the MIC [4] was 2.5 µg/mL and the MIC [5] was 0.3 µg/mL. It also gave an MIC [6] of 0.6 µg/mL, an MIC [7] of 0.3 µg/mL and an MIC [8] of 0.04 µg/mL. For the same molecule, the MIC [9] was 0.6 µg/mL, the MIC [10] was 0.6 µg/mL and the MIC [11] was 0.6 µg/mL. For the same molecule, the MIC [12] was 0.6 µg/mL, the MIC [13] was 0.15 µg/mL and the MIC [14] was 0.15 µg/mL. The MIC [15] was 0.6 µg/mL, the MIC [16] was 0.6 µg/mL and the MIC [17] was 0.08 µg/mL. The MIC [18] was 0.6 µg/mL, the MIC [19] was 0.6 µg/mL and the MIC [20] was 0.3 µg/mL. For the same molecule, the MIC [21] was 0.6 µg/mL, the MIC [22] was 0.3 µg/mL and the MIC [23] was 0.3 µg/mL. It also gave an MIC [24] of 0.3 µg/mL.
